According to ChEMBL document CHEMBL1201862, “PubChem BioAssay data set” (2004):
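All cell lines were grown in 96-well plates and treated with compound for 48 hours. Abbreviation: GI50, concentration required for 50% inhibition of growth.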 The source made the active and inactive calls. Cut-off read from the data, not from the text of the source: active = GI50 up to about 1.1 µM and inactive = higher.

Assays:
Test in all cases: growth of human tumour cells (NCI), 48 h
UACC-62 = test system: UACC-62
IGROV-1 = test system: IGROV-1
DMS-114 = test system: DMS-114
UO-31 = test system: UO-31
NCI-H23 = test system: NCI-H23
SNB-75 = test system: SNB-75
M14 = test system: M14
ACHN = test system: ACHN
HT-29 = test system: HT-29
M19-MEL = test system: M19-MEL
SR = test system: SR
LXFL 529 = test system: LXFL 529
SF-268 = test system: SF-268
SW-620 = test system: SW-620
NCI-H522 = test system: NCI-H522
SK-OV-3 = test system: SK-OV-3
RXF 631 = test system: RXF 631
OVCAR-8 = test system: OVCAR-8
786-0 = test system: 786-0
XF498 = test system: XF498
DMS-273 = test system: DMS-273
UACC-257 = test system: UACC-257
KM-20L2 = test system: KM-20L2
CCRF-CEM = test system: CCRF-CEM
HCC 2998 = test system: HCC 2998
K562 = test system: K562
SK-MEL-5 = test system: SK-MEL-5
NCI-H226 = test system: NCI-H226
OVCAR-4 = test system: OVCAR-4
SNB-78 = test system: SNB-78
SK-MEL-2 = test system: SK-MEL-2
RPMI-8226 = test system: RPMI-8226
EKVX = test system: EKVX
SF-539 = test system: SF-539
U-251 = test system: U-251
KM12 = test system: KM12
HCT-15 = test system: HCT-15
A549 = test system: A549
MOLT-4 = test system: MOLT-4
HOP-62 = test system: HOP-62
COLO 205 = test system: COLO 205
SK-MEL-28 = test system: SK-MEL-28
SN12C = test system: SN12C
OVCAR-3 = test system: OVCAR-3
NCI-H460 = test system: NCI-H460
A498 = test system: A498
DLD-1 = test system: DLD-1
HCT-116 = test system: HCT-116
SNB-19 = test system: SNB-19
CAKI-1 = test system: CAKI-1
Malme-3M = test system: Malme-3M
OVCAR-5 = test system: OVCAR-5
HOP-92 = test system: HOP-92
HOP-18 = test system: HOP-18
SF-295 = test system: SF-295
TK-10 = test system: TK-10
LOX IMVI = test system: LOX IMVI
HL-60 = test system: HL-60
RXF 393 = test system: RXF 393

Cc1ccccc1/C=C/C(=O)c1ccccc1
GI50 (UACC-62): 19.9 µM (inactive) | GI50 (IGROV-1): 25.2 µM (inactive) | GI50 (DMS-114): 20.9 µM (inactive) | GI50 (UO-31): 21.7 µM (inactive) | GI50 (NCI-H23): 17.6 µM (inactive) | GI50 (SNB-75): 19.5 µM (inactive) | GI50 (M14): 16.1 µM (inactive) | GI50 (ACHN): 18.8 µM (inactive) | GI50 (HT-29): 20.1 µM (inactive) | GI50 (M19-MEL): 25 µM (inactive) | GI50 (SR): 29 µM (inactive) | GI50 (LXFL 529): 21.6 µM (inactive) | GI50 (SF-268): 15.9 µM (inactive) | GI50 (SW-620): > 10 µM (inactive) | GI50 (NCI-H522): 21.1 µM (inactive) | GI50 (SK-OV-3): 27.4 µM (inactive) | GI50 (RXF 631): 19.4 µM (inactive) | GI50 (OVCAR-8): 25.2 µM (inactive) | GI50 (786-0): 16.3 µM (inactive) | GI50 (XF498): 17.1 µM (inactive) | GI50 (DMS-273): 25.8 µM (inactive) | GI50 (UACC-257): 22.5 µM (inactive) | GI50 (KM-20L2): 17.7 µM (inactive) | GI50 (CCRF-CEM): 29.6 µM (inactive) | GI50 (HCC 2998): 18.4 µM (inactive) | GI50 (K562): 20.6 µM (inactive) | GI50 (SK-MEL-5): > 10 µM (inactive) | GI50 (NCI-H226): 20.5 µM (inactive) | GI50 (OVCAR-4): 13.3 µM (inactive) | GI50 (SNB-78): 19.3 µM (inactive) | GI50 (SK-MEL-2): > 10 µM (inactive) | GI50 (RPMI-8226): 24.9 µM (inactive) | GI50 (EKVX): 17.5 µM (inactive) | GI50 (SF-539): 15.1 µM (inactive) | GI50 (U-251): 16.8 µM (inactive) | GI50 (KM12): 23.3 µM (inactive) | GI50 (HCT-15): > 10 µM | GI50 (A549): 22.5 µM (inactive) | GI50 (MOLT-4): 18.7 µM (inactive) | GI50 (HOP-62): 16.7 µM (inactive) | GI50 (COLO 205): 21.4 µM (inactive) | GI50 (SK-MEL-28): 18.7 µM (inactive) | GI50 (SN12C): > 10 µM (inactive) | GI50 (OVCAR-3): 17.3 µM (inactive) | GI50 (NCI-H460): 17.8 µM (inactive) | GI50 (A498): 16.4 µM (inactive) | GI50 (DLD-1): 22.4 µM (inactive) | GI50 (HCT-116): 15.4 µM (inactive) | GI50 (SNB-19): 16.5 µM (inactive) | GI50 (CAKI-1): 19.4 µM (inactive) | GI50 (Malme-3M): 18.1 µM (inactive) | GI50 (OVCAR-5): 16.3 µM (inactive) | GI50 (HOP-92): 20.5 µM (inactive)

C=C(C#N)C1OCC2OC(C)(C)OC21 (centres undefined)
GI50 (UACC-62): 17.3 µM (inactive) | GI50 (IGROV-1): 37.4 µM (inactive) | GI50 (DMS-114): 22.7 µM (inactive) | GI50 (UO-31): 40.5 µM (inactive) | GI50 (HOP-18): 24.7 µM (inactive) | GI50 (NCI-H23): 18.6 µM (inactive) | GI50 (SNB-75): 20.1 µM (inactive) | GI50 (M14): 15.7 µM (inactive) | GI50 (ACHN): 20.7 µM (inactive) | GI50 (HT-29): 34.9 µM (inactive) | GI50 (M19-MEL): 22 µM (inactive) | GI50 (SF-268): 23.8 µM (inactive) | GI50 (SW-620): 19 µM (inactive) | GI50 (SF-295): 45.9 µM (inactive) | GI50 (SK-OV-3): 50.6 µM (inactive) | GI50 (RXF 631): 20.9 µM (inactive) | GI50 (OVCAR-8): 21.5 µM (inactive) | GI50 (786-0): 20.2 µM (inactive) | GI50 (TK-10): 34 µM (inactive) | GI50 (DMS-273): 19.1 µM (inactive) | GI50 (UACC-257): 15.5 µM (inactive) | GI50 (CCRF-CEM): 16.5 µM (inactive) | GI50 (HCC 2998): 26.7 µM (inactive) | GI50 (LOX IMVI): 15 µM (inactive) | GI50 (K562): 28.1 µM (inactive) | GI50 (SK-MEL-5): 17.3 µM (inactive) | GI50 (OVCAR-4): 19.4 µM (inactive) | GI50 (SNB-78): 19.7 µM (inactive) | GI50 (SK-MEL-2): 27.4 µM (inactive) | GI50 (EKVX): 24.4 µM (inactive) | GI50 (SF-539): 16.1 µM (inactive) | GI50 (U-251): 32.7 µM (inactive) | GI50 (KM12): 33.3 µM (inactive) | GI50 (HCT-15): 16.9 µM | GI50 (HL-60): 18.2 µM (inactive) | GI50 (A549): 36 µM (inactive) | GI50 (MOLT-4): 15.7 µM (inactive) | GI50 (HOP-62): > 100 µM (inactive) | GI50 (COLO 205): 15.4 µM (inactive) | GI50 (SK-MEL-28): 21.1 µM (inactive) | GI50 (SN12C): 18.4 µM (inactive) | GI50 (OVCAR-3): 21.7 µM (inactive) | GI50 (NCI-H460): 24.9 µM (inactive) | GI50 (A498): 22.2 µM (inactive) | GI50 (DLD-1): 17.1 µM (inactive) | GI50 (HCT-116): 18.7 µM (inactive) | GI50 (SNB-19): > 100 µM (inactive) | GI50 (CAKI-1): 23.4 µM (inactive) | GI50 (OVCAR-5): 19.8 µM (inactive) | GI50 (HOP-92): 24 µM (inactive) | GI50 (RXF 393): 16.7 µM (inactive)

C[C@@H]1CC2(N=CCS2)[C@]2(O)O[C@@H]3C[C@@]4(C)[C@H](C[C@H]3O[C@@H]2O1)C[C@H]1O[C@]12[C@@H]4[C@H](O)C(=O)[C@]1(C)C(C3=CC(=O)OC3)CC[C@]21O (some centres undefined)
GI50 (UACC-62): 0.0229 µM (active) | GI50 (IGROV-1): 0.0254 µM (active) | GI50 (DMS-114): < 0.01 µM (active) | GI50 (UO-31): 0.0284 µM (active) | GI50 (NCI-H23): < 0.01 µM (active) | GI50 (SNB-75): 0.0289 µM (active) | GI50 (M14): 0.0227 µM (active) | GI50 (ACHN): < 0.01 µM (active) | GI50 (M19-MEL): 0.0282 µM (active) | GI50 (SR): < 0.01 µM (active) | GI50 (LXFL 529): < 0.01 µM (active) | GI50 (SF-268): < 0.01 µM (active) | GI50 (NCI-H522): < 0.01 µM (active) | GI50 (SK-OV-3): 0.0314 µM (active) | GI50 (RXF 631): 0.0251 µM (active) | GI50 (786-0): < 0.01 µM (active) | GI50 (XF498): 0.0187 µM (active) | GI50 (DMS-273): < 0.01 µM (active) | GI50 (CCRF-CEM): < 0.01 µM (active) | GI50 (HCC 2998): 0.0281 µM (active) | GI50 (LOX IMVI): 0.0114 µM (active) | GI50 (K562): 0.0194 µM (active) | GI50 (NCI-H226): 0.0292 µM (active) | GI50 (OVCAR-4): < 0.01 µM (active) | GI50 (SNB-78): 0.0132 µM (active) | GI50 (SK-MEL-2): 0.0264 µM (active) | GI50 (RPMI-8226): 0.022 µM (active) | GI50 (SF-539): < 0.01 µM (active) | GI50 (HL-60): 0.0123 µM (active) | GI50 (MOLT-4): < 0.01 µM (active) | GI50 (HOP-62): < 0.01 µM (active) | GI50 (COLO 205): 0.0304 µM (active) | GI50 (SK-MEL-28): 0.0255 µM (active) | GI50 (SN12C): < 0.01 µM (active) | GI50 (A498): 0.0138 µM (active) | GI50 (DLD-1): < 0.01 µM (active) | GI50 (HCT-116): < 0.01 µM (active) | GI50 (CAKI-1): 0.011 µM (active) | GI50 (Malme-3M): 0.0129 µM (active) | GI50 (HOP-92): 0.0306 µM (active)
